Assay results from PMC9230573 (Frontiers in Pharmacology, 2022).
Where a SMILES comes first, the peptide text is derived from it. Bridges are numbered along the chain shown (N, C = ends).

Assays:
[1] = biological target: rat α3β2 nAChR (Rattus norvegicus, UniProt P04757+P12390); test: cell-based
[2] = biological target: human CaV2.2 (α1B, β3, α2δ1) (Homo sapiens, UniProt Q00975); test: cell-based
Chain of human CaV2.2 (α1B, β3, α2δ1) (Q00975 whole entry, looked up): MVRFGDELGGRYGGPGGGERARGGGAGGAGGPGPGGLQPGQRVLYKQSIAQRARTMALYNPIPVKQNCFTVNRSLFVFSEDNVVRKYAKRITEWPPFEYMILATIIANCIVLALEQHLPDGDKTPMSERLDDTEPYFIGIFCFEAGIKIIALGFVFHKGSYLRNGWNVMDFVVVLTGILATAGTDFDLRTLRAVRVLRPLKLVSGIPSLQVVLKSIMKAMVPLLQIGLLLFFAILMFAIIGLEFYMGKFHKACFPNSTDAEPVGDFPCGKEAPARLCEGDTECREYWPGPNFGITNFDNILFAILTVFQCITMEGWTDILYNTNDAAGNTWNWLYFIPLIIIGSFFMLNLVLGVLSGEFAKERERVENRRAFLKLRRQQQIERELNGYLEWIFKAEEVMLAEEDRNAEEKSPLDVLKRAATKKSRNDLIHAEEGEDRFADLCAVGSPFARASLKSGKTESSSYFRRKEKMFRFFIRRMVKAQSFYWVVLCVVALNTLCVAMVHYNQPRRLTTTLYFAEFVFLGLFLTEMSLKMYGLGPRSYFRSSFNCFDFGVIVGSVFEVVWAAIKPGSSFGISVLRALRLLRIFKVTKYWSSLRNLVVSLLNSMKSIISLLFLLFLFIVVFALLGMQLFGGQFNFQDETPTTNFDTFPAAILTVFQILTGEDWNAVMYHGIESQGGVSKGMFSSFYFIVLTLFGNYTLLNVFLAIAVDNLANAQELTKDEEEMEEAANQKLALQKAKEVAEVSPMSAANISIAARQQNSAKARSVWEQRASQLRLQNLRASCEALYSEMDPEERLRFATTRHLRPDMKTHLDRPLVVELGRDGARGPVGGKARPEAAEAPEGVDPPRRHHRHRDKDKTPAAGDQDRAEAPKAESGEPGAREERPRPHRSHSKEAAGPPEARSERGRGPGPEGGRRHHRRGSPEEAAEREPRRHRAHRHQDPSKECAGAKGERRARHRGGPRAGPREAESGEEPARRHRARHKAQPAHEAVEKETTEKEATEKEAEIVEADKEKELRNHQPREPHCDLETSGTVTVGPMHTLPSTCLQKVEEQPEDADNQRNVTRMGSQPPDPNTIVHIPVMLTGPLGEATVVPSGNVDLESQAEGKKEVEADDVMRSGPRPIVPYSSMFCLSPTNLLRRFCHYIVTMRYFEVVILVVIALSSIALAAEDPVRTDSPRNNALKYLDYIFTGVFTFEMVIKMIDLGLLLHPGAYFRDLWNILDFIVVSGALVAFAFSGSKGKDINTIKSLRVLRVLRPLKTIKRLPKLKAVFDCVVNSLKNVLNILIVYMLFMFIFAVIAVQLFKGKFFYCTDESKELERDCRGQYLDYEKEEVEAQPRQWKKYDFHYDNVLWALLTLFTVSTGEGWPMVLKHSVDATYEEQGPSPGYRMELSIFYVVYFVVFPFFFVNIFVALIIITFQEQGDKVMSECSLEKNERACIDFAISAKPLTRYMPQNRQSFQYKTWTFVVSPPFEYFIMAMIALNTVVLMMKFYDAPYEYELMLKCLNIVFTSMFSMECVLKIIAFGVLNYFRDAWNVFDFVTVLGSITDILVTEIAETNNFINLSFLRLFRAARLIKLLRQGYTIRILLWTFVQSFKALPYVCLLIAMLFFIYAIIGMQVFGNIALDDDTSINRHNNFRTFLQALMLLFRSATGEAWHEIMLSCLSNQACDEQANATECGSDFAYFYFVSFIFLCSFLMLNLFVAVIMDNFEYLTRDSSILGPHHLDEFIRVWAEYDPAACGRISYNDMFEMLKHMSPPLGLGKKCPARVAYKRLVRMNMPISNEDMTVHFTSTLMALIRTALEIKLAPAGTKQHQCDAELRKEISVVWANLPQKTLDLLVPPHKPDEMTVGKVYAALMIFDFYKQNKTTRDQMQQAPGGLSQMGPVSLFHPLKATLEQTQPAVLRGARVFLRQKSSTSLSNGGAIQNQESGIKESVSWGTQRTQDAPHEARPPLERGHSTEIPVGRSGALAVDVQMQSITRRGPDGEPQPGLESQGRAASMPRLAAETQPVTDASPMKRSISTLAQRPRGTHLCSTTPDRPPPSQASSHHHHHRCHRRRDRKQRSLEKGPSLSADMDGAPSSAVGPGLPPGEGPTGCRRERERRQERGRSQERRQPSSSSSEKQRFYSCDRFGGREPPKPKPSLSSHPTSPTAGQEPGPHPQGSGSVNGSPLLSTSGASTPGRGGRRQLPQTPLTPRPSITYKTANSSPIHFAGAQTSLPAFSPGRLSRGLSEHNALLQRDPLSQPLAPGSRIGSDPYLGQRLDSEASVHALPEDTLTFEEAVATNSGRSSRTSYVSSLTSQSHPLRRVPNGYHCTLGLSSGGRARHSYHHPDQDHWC

Chain of rat α3β2 nAChR (P04757 26-499 limits assumed): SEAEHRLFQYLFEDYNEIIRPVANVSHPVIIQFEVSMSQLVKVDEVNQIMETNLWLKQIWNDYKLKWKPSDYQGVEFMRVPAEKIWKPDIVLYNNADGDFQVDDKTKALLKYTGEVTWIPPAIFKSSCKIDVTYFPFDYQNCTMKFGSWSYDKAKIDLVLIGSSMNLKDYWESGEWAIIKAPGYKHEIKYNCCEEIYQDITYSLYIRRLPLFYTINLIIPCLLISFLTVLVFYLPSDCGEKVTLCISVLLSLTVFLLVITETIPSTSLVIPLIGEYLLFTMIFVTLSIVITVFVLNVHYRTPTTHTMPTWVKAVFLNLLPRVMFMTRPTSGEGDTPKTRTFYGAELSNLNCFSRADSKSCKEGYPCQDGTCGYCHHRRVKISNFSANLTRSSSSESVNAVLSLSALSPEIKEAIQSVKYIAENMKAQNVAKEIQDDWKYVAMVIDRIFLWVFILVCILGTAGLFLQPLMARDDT
Chain of rat α3β2 nAChR (P12390 25-500 limits assumed): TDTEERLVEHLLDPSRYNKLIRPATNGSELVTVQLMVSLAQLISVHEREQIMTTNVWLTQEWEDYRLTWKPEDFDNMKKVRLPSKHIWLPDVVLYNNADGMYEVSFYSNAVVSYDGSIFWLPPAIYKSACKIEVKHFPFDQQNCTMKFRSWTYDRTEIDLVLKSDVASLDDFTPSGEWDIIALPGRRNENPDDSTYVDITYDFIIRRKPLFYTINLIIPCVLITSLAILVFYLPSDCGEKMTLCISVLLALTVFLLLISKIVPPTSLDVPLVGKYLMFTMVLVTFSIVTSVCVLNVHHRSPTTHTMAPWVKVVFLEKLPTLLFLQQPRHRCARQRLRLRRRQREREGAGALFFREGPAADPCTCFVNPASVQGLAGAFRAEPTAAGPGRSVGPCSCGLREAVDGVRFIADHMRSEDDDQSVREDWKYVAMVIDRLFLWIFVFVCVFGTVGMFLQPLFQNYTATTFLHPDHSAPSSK

Structure (SMILES)	Hillslope [1]	IC50 [1] [µM]	change of potency at the α3β2 nAChR subtype compared with Vt1.27 (in words) [1]	inhibitory activity at CaV2.2 compared with Vt1.27 (in words; percent inhibition of IBa) [2]
CC[C@H](C)[C@@H]1NC(=O)[C@@H]2CCCN2C(=O)[C@@H]2CSSC[C@H](NC(=O)[C@@H](N)CC(N)=O)C(=O)N[C@@H](CSSC[C@@H](C(N)=O)NC(=O)[C@H](CC(N)=O)NC(=O)[C@H](Cc3ccccc3)NC(=O)[C@H](CCCNC(=N)N)NC(=O)[C@H](CO)NC(=O)[C@H](C)NC(=O)[C@H](CC(=O)O)NC1=O)C(=O)N[C@@H](CCSC)C(=O)N[C@@H](Cc1ccccc1)C(=O)N[C@@H](Cc1c[nH]cn1)C(=O)N[C@@H]([C@@H](C)O)C(=O)N2 [Vt1.27[Y12A]] (H-NCCMFHTCPIDASRFNC-NH2; disulfide 2-8, 3-17)	-1.577	2.54	a decrease in the potency	–
CC[C@H](C)[C@@H]1NC(=O)[C@H](C)NC(=O)[C@@H]2CSSC[C@H](NC(=O)[C@@H](N)CC(N)=O)C(=O)N[C@@H](CSSC[C@@H](C(N)=O)NC(=O)[C@H](CC(N)=O)NC(=O)[C@H](Cc3ccccc3)NC(=O)[C@H](CCCNC(=N)N)NC(=O)[C@H](CO)NC(=O)[C@H](Cc3ccc(O)cc3)NC(=O)[C@H](CC(=O)O)NC1=O)C(=O)N[C@@H](CCSC)C(=O)N[C@@H](Cc1ccccc1)C(=O)N[C@@H](Cc1c[nH]cn1)C(=O)N[C@@H]([C@@H](C)O)C(=O)N2 [Vt1.27[P9A]] (H-NCCMFHTCAIDYSRFNC-NH2; disulfide 2-8, 3-17)	-0.763	9.4	a sharp decrease in activity	decrease in inhibitory activity
CC[C@H](C)[C@@H]1NC(=O)[C@H](C)NC(=O)[C@@H]2CSSC[C@H](NC(=O)[C@@H](N)CC(N)=O)C(=O)N[C@@H](CSSC[C@@H](C(N)=O)NC(=O)[C@H](CC(N)=O)NC(=O)[C@H](Cc3ccccc3)NC(=O)[C@H](CCCNC(=N)N)NC(=O)[C@H](CO)NC(=O)[C@H](Cc3ccc(O)cc3)NC(=O)[C@H](CC(=O)O)NC1=O)C(=O)N[C@@H](CCSC)C(=O)N[C@@H](Cc1ccccc1)C(=O)N1CCC[C@H]1C(=O)N[C@@H]([C@@H](C)O)C(=O)N2 [Vt1.27[H6P、P9A]] (H-NCCMFPTCAIDYSRFNC-NH2; disulfide 2-8, 3-17)	–	> 10	a significant loss of potency	–
CC[C@H](C)[C@@H]1NC(=O)[C@@H]2CCCN2C(=O)[C@@H]2CSSC[C@H](NC(=O)[C@@H](N)CC(N)=O)C(=O)N[C@@H](CSSC[C@@H](C(N)=O)NC(=O)[C@H](CC(N)=O)NC(=O)[C@H](C)NC(=O)[C@H](CCCNC(=N)N)NC(=O)[C@H](CO)NC(=O)[C@H](Cc3ccc(O)cc3)NC(=O)[C@H](CC(=O)O)NC1=O)C(=O)N[C@@H](CCSC)C(=O)N[C@@H](Cc1ccccc1)C(=O)N[C@@H](Cc1c[nH]cn1)C(=O)N[C@@H]([C@@H](C)O)C(=O)N2 [Vt1.27[F15A]] (H-NCCMFHTCPIDYSRANC-NH2; disulfide 2-8, 3-17)	–	> 10	a decrease in the potency	equipotent to the native peptide
CC[C@H](C)[C@@H]1NC(=O)[C@@H]2CCCN2C(=O)[C@@H]2CSSC[C@H](NC(=O)[C@@H](N)CC(N)=O)C(=O)N[C@@H](CSSC[C@@H](C(N)=O)NC(=O)[C@H](CC(N)=O)NC(=O)[C@H](Cc3ccccc3)NC(=O)[C@H](C)NC(=O)[C@H](CO)NC(=O)[C@H](Cc3ccc(O)cc3)NC(=O)[C@H](CC(=O)O)NC1=O)C(=O)N[C@@H](CCSC)C(=O)N[C@@H](Cc1ccccc1)C(=O)N[C@@H](Cc1c[nH]cn1)C(=O)N[C@@H]([C@@H](C)O)C(=O)N2 [Vt1.27[R14A]] (H-NCCMFHTCPIDYSAFNC-NH2; disulfide 2-8, 3-17)	-0.871	2.86	a decrease in the potency	–
